In general, IC50 refers to the point on the concentration scale where inhibition reaches its midpoint.

Like-named read-outs stand apart in the source and are kept apart here.

The source of these data is patent US11174245B2, “Benzimidazole compounds and derivatives as EGFR inhibitors” (Boehringer Ingelheim International GmbH, priority 2018, dated 2021).

In one experiment the target is EGFR wt (Homo sapiens (Human), UniProt P00533). Nature of the experiment: Biochemical EGFR inhibition assay (TR-FRET, poly-GT substrate), EGFR wt. The procedure:
(§1) Biochemical EGFR Inhibition Assays
(§2) Initially, the inhibitory effect of compounds according to the invention is measured in biochemical assays which measure the phosphorylation activity of EGFR enzyme forms on poly-GT substrate in the presence of different concentrations of ATP (5 μM and 100 μM final assay concentration).
(§3) The following enzyme forms of EGFR are representative examples that can be used in these assays at the given concentrations:
(§4) For the chosen highest assay concentration of 100 μM, 150 nL of compound solution is transferred from a 10 mM DMSO compound stock solution. A series of eleven fivefold dilutions per compound is transferred to the assay plate, compound dilutions are tested in duplicates. DMSO is added as backfill to a total volume of 150 nL. The assay runs on a fully automated robotic system.
(§5) These biochemical EGFR enzyme form compound dose-response assays quantify the kinase activity via phosphorylation of a tagged poly-GT substrate. The results of the assay are provided as IC50 values.

Experiment [1] deals with EGFR (d746-750 T790M C797S) (Homo sapiens (Human), UniProt P00533, C797S/DEL746-750/T790M). Nature of the experiment: Biochemical EGFR inhibition assay (TR-FRET, poly-GT substrate), EGFR d746-750 T790M C797S. The procedure: as §1, §2, §3, §4, §5
Experiment [2] deals with EGFR (mutated) 695-1022, T790M, C797S, L858R (Homo sapiens (Human), UniProt P00533, C797S/L858R/T790M). Nature of the experiment: Biochemical EGFR inhibition assay (TR-FRET, poly-GT substrate), EGFR T790M C797S L858R. The protocol: as §1, §2, §3, §4, §5
In experiment [3] the target is EGFR del19 T790M C797S protein in Ba/F3 cells (Homo sapiens, UniProt P00533, C797S/DEL746-750/T790M). The experiment is described as follows: pEGFR assay (AlphaScreen Surefire, EGFR Tyr1068 phosphorylation). Type of experiment: cell-based. In a few lines:
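Transduced Ba/F3 cells, puromycin-selected and grown IL-3 independent, were treated with compound at 60.000 cells/well for 4 h at 37° C. Lysis followed for 20 min at room temperature, and Tyr1068 phospho-EGFR in lysate was detected after 2 h dark incubation. Results are IC50 values.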

The mark [4] stands for this setting: read-out: wt (100 μM ATP) IC50, 100 μM ATP.
Where [5] appears, read: read-out: LR_TM_CS (100 μM ATP) IC50, 100 μM ATP.
[6] abbreviates: read-out: wt (5 μM ATP) IC50, 5 μM ATP.
Where [7] appears, read: read-out: LR_TM_CS (5 μM ATP) IC50, 5 μM ATP.

EGFR (mutated) 695-1022, T790M, C797S, L858R, sequence (P00533 695-1022 T790M/C797S/L858R): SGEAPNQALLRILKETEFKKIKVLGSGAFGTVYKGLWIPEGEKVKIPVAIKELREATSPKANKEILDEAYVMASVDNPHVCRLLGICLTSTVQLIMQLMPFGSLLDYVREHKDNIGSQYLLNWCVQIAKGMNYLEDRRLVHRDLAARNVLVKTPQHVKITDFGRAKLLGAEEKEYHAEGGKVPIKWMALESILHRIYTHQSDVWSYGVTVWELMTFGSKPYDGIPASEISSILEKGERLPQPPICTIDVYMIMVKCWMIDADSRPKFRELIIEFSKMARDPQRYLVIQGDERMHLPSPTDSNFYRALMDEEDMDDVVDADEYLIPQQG
EGFR wt, sequence (P00533 25-1210): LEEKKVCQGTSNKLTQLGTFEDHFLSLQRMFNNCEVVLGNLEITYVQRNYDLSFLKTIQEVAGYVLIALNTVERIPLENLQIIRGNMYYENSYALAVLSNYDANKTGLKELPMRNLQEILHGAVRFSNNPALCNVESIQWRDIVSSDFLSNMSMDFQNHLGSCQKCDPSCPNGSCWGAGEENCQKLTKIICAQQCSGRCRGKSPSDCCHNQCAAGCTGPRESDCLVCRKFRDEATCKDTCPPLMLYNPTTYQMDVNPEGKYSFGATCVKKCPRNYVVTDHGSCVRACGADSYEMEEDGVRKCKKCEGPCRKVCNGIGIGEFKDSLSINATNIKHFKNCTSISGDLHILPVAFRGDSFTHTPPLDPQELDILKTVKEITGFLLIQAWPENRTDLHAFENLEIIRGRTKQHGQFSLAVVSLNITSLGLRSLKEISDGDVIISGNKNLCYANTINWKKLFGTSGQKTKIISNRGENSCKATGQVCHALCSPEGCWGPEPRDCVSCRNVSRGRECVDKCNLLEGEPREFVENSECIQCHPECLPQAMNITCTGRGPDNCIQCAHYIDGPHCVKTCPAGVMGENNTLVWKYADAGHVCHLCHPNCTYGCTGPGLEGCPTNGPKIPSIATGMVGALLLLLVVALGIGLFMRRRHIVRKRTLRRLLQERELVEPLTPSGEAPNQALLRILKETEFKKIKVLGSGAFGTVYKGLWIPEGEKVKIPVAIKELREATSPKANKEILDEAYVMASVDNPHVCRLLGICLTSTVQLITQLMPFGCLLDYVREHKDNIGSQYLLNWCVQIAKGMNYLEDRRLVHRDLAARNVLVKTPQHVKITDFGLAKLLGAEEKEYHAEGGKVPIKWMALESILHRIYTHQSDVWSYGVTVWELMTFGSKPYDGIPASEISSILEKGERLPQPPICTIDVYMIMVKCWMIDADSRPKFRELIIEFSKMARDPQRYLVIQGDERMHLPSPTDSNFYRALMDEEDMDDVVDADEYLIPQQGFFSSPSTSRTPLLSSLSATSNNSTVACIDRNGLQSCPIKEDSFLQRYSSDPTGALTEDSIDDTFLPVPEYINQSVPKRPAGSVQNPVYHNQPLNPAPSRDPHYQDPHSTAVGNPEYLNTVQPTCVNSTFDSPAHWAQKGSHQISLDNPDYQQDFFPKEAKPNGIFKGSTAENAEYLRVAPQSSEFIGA
EGFR del19 T790M C797S protein in Ba/F3 cells, sequence (P00533 with tags, fused parts or gaps C797S/DEL746-750/T790M limits assumed): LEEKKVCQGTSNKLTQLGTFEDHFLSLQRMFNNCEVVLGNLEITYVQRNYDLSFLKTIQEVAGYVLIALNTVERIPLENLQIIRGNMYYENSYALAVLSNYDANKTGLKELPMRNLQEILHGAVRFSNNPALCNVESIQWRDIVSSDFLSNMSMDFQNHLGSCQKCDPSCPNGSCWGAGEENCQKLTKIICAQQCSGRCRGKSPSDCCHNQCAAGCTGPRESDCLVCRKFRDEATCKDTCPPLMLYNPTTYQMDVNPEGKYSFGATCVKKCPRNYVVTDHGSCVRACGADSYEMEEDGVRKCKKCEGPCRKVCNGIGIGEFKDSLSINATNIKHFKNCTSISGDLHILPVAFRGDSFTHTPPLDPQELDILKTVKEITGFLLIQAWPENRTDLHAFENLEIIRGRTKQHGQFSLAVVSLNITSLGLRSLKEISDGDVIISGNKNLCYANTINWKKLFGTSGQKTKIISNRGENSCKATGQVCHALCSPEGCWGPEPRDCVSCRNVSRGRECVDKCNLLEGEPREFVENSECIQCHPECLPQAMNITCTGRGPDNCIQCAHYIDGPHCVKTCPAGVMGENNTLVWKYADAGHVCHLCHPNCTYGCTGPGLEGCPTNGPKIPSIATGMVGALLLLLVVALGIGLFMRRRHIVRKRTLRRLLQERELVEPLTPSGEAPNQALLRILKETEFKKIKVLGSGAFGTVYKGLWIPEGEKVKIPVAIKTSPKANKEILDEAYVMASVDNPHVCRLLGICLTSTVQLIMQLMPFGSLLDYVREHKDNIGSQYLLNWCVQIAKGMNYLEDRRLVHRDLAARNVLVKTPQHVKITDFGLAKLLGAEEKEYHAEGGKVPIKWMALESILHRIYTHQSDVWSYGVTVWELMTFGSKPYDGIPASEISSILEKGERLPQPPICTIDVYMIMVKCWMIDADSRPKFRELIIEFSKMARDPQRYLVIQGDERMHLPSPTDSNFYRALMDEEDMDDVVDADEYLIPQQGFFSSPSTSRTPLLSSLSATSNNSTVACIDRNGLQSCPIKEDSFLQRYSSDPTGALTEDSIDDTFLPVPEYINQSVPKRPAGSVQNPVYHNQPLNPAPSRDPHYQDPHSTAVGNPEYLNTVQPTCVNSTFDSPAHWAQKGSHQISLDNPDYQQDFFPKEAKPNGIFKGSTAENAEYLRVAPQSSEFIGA
EGFR (d746-750 T790M C797S), sequence (P00533 other isoform, or with tags, fused parts or gaps T790M/C797S/del 1-694/del 746-750 limits assumed): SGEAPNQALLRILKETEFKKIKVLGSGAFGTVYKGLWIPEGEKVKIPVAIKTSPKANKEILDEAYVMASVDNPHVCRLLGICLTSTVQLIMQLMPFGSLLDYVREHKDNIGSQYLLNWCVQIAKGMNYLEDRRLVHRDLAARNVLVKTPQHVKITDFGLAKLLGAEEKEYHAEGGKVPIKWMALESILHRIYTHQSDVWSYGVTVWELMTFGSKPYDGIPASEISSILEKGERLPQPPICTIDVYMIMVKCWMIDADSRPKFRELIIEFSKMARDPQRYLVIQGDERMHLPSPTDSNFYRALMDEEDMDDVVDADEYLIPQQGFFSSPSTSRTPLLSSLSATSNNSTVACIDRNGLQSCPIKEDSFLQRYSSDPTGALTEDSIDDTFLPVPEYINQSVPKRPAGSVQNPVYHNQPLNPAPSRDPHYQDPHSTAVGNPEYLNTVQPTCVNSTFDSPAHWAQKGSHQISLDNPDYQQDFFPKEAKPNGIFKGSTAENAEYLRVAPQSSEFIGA

Regarding `CN1CCC(c2ccc3c(c2)[nH]/c(=N\C(=O)c2ccnc(-c4cnn(C)c4)c2)n3CC(C)(C)O)CC1` [I-021], the IC50 was determined as 876 nM on EGFR wt (setting [4]), 4.9 nM in experiment [1] (100 μM ATP), 27.7 nM in experiment [2] (setting [5]) and 4 nM in experiment [3].

On to `COc1ccncc1-c1cc(C(=O)/N=c2\[nH]c3cc(C4CCN(C(C)=O)CC4)ccc3n2CC(C)(C)O)ccn1` [I-031], for which the IC50 was found to be 1.2 nM in experiment [1] (100 μM ATP) and 1 nM in experiment [3].

Regarding `Cc1c(-c2cc(C(=O)/N=c3\[nH]c4cc(N5CCN(C)CC5)ccc4n3CC(C)(C)O)ccn2)cnn1C` [I-025], the IC50 came to 7890 nM on EGFR wt (setting [4]), 27.9 nM in experiment [1] (100 μM ATP), 113 nM in experiment [2] (setting [5]) and 28 nM in experiment [3].

As for `Cn1cc(-c2cc(C(=O)/N=c3\[nH]c4ccccc4n3[C@H]3CC[C@H](O)CC3)ccn2)cn1` [I-036], the IC50 was 407 nM at EGFR wt (setting [6]); 1250 nM on EGFR wt (setting [4]); 4 nM in experiment [1] (100 μM ATP); 1.6 nM in experiment [2] (setting [7]); 40.1 nM in experiment [2] (setting [5]); 3 nM in experiment [3].

With `Cc1cc(C(=O)/N=c2\[nH]c3ccc(CN4CCN(C)CC4)cc3n2[C@H]2CC[C@@H](O)CC2)cc(-c2cnn(C)c2)n1` [I-222], the IC50 on EGFR wt (setting [6]) worked out at 318 nM; in experiment [1] (5 μM ATP), 0.2 nM; in experiment [2] (setting [7]) it was 0.6 nM; in experiment [3] it was 5 nM.

For `CC(C)(O)Cn1/c(=N/C(=O)c2ccnc(-c3cccnc3)c2)[nH]c2cc(C3CCCOC3)ccc21` (stereo not drawn) [I-052], the IC50 on EGFR wt (setting [4]) is more than 100000 nM; in experiment [1] (100 μM ATP), 6.6 nM; in experiment [2] (setting [5]) it was 189 nM; in experiment [3], 6 nM.

Turning to `CN1CCN(c2ccc3c(c2)[nH]/c(=N\C(=O)c2ccnc(-c4cnn(C)c4)c2)n3CC(C)(C)O)CC1` [I-022], the IC50 is 5620 nM at EGFR wt (setting [4]), 61.8 nM in experiment [1] (100 μM ATP), 169 nM in experiment [2] (setting [5]) and 71 nM in experiment [3].

As for `Cn1cc(-c2cc(C(=O)/N=c3\[nH]c4ccccc4n3CC(C)(C)CO)ccn2)cn1` [I-038], the IC50 was determined as 40800 nM at EGFR wt (setting [4]), 15.8 nM in experiment [1] (100 μM ATP), 234 nM in experiment [2] (setting [5]) and 27 nM in experiment [3].

With `CN1CCC(c2ccc3c(c2)[nH]/c(=N\C(=O)c2ccnc(-c4cccnc4)c2)n3C2CCCC2)CC1` [I-011], the IC50 at EGFR wt (setting [4]) is 7060 nM; in experiment [1] (100 μM ATP), 2.5 nM; in experiment [2] (setting [5]), 27.7 nM; in experiment [3], 77 nM.

Turning to `Cc1nn(C)cc1-c1cc(C(=O)/N=c2\[nH]c3ccccc3n2C2CCCC2)ccn1` [I-005], the IC50 on EGFR wt (setting [4]) was 236 nM; in experiment [1] (100 μM ATP) it was 14.2 nM; in experiment [2] (setting [5]), 105 nM; in experiment [3], 11 nM.

With `Cn1cc(-c2cc(C(=O)/N=c3\[nH]c4ccccc4n3[C@H]3CC[C@@H](O)CC3)cc(C#N)n2)cn1` [I-136], the IC50 was 164 nM on EGFR wt (setting [6]); more than 100000 nM on EGFR wt (setting [4]); 0.2 nM in experiment [1] (5 μM ATP); 0.8 nM in experiment [2] (setting [7]); 31.6 nM in experiment [2] (setting [5]); 2 nM in experiment [3].

For the compound `Cn1cc(-c2cc(C(=O)/N=c3\[nH]c4ccccc4n3CCC(C)(C)O)ccn2)cn1` [I-037], the IC50 at EGFR wt (setting [4]) was more than 100000 nM; in experiment [1] (100 μM ATP) it was 14.2 nM; in experiment [2] (setting [5]) it was 171 nM; in experiment [3] it was 15 nM.

For the compound `CC(C)(O)Cn1/c(=N/C(=O)c2ccnc(-c3cnn4ccccc34)c2)[nH]c2ccccc21` [I-023], the IC50 on EGFR wt (setting [4]) was more than 100000 nM; in experiment [1] (100 μM ATP), 7.7 nM; in experiment [2] (setting [5]), 78.2 nM; in experiment [3] it was 7 nM.

In the case of `Cn1cc(-c2cc(C(=O)/N=c3\[nH]c4ccccc4n3CC(C)(C)O)ccn2)cn1` [I-001], the values for the IC50 in experiment [1] (100 μM ATP) and in experiment [3] were 71.7 nM and 43 nM, respectively.

Turning to `COc1ccncc1-c1cc(C(=O)/N=c2\[nH]c3ccccc3n2CC(C)(C)O)ccn1` [I-018], the IC50 on EGFR wt (setting [4]) was determined as 10000 nM; in experiment [2] (setting [5]), 11.9 nM; in experiment [3], 1 nM.

`O=C(/N=c1\[nH]c2ccccc2n1[C@H]1CC[C@@H](O)CC1)c1ccnc(-c2cccc(F)c2)c1` [I-185]: the IC50 was 3240 nM on EGFR wt (setting [6]), 35.6 nM in experiment [2] (setting [7]) and 23 nM in experiment [3].

As for `Cc1cc(C(=O)/N=c2\[nH]c3ccccc3n2[C@H]2CCC[C@H](O)C2)cc(-c2cnn(C)c2)n1` [I-204], the figures for the IC50 (on EGFR wt (setting [6]); in experiment [2] (setting [7]); in experiment [3]) were 9290 nM, 26.2 nM and 6 nM, respectively.

In the case of `C#Cc1cc(C(=O)/N=c2\[nH]c3ccccc3n2[C@H]2CC[C@@H](O)CC2)cc(-c2cnn(C)c2)n1` [I-171], the figures for the IC50 (at EGFR wt (setting [6]); in experiment [2] (setting [7]); in experiment [3]) were 2970 nM, 8.8 nM and 8 nM, respectively.

Turning to `Cn1cc(-c2cc(C(=O)/N=c3\[nH]c4ccccc4n3[C@H]3COC[C@@H](O)C3)ccn2)cn1` [I-191], the values for the IC50 (on EGFR wt (setting [6]); in experiment [2] (setting [7]); in experiment [3]) were 1660 nM, 7.4 nM and 44 nM, respectively.

On to `Cn1cc(-c2cc(C(=O)/N=c3\[nH]c4ccccc4n3C3CCCS(=O)(=O)C3)ccn2)cn1` (stereo not drawn) [I-212], for which the IC50 is 318 nM at EGFR wt (setting [6]), 2.5 nM in experiment [2] (setting [7]) and 22 nM in experiment [3].

Regarding `COc1ccncc1-c1cc(C(=O)/N=c2\[nH]c3cc(CN4CCOCC4)ccc3n2[C@H]2CC[C@@H](O)CC2)cc(C#N)n1` [I-196], the IC50 is 1400 nM at EGFR wt (setting [6]), 3 nM in experiment [2] (setting [7]) and 5 nM in experiment [3].

`COc1ccc(F)cc1-c1cc(C(=O)/N=c2\[nH]c3ccccc3n2[C@H]2CC[C@@H](O)CC2)ccn1` [I-157]: the IC50 on EGFR wt (setting [6]) was found to be 70.4 nM; in experiment [2] (setting [7]), 4.6 nM; in experiment [3], 5 nM.

As for `Cn1cc(-c2cc(C(=O)/N=c3\[nH]c4ccccc4n3[C@H]3CCC[C@@H](O)C3)ccn2)cn1` [I-126], the results for the concentration for half-maximal inhibition (IC50) (at EGFR wt (setting [6]); in experiment [2] (setting [7]); in experiment [3]) were 305 nM, 3.1 nM and 6 nM, respectively.

`COc1c(C)cccc1-c1cc(C(=O)/N=c2\[nH]c3ccccc3n2[C@H]2CC[C@@H](O)CC2)ccn1` [I-162]: the IC50 at EGFR wt (setting [6]) was 1180 nM; in experiment [2] (setting [7]), 14.2 nM; in experiment [3], 6 nM.

Consider `COc1ccccc1-c1cc(C(=O)/N=c2\[nH]c3ccccc3n2CC(C)(C)O)ccn1` [I-105], for which the half-inhibitory concentration (IC50) on EGFR wt (setting [4]) amounted to 1800 nM; in experiment [2] (setting [7]), 0.7 nM; in experiment [2] (setting [5]), 10.3 nM; in experiment [3], 2 nM.

With `COc1ccccc1-c1cc(C(=O)/N=c2\[nH]c3cc(CN4CCOCC4)ccc3n2[C@H]2CCC[C@@H](O)C2)ccn1` [I-148], the values for the IC50 (at EGFR wt (setting [6]); in experiment [2] (setting [7]); in experiment [3]) were 77.8 nM, 3.3 nM and 4 nM, respectively.

Turning to `Cn1cc(-c2cc(C(=O)/N=c3\[nH]c4ccccc4n3[C@H]3CCC[C@H](O)C3)cc(C#N)n2)cn1` [I-210], the IC50 was determined as 664 nM at EGFR wt (setting [6]), 4.3 nM in experiment [2] (setting [7]) and 9 nM in experiment [3].

For the compound `Cc1cccc(-c2cc(C(=O)/N=c3\[nH]c4ccccc4n3[C@H]3CC[C@@H](O)CC3)ccn2)c1` [I-161], the IC50 was 205 nM on EGFR wt (setting [6]), 2.4 nM in experiment [2] (setting [7]) and 6 nM in experiment [3].

Turning to `O=C(/N=c1\[nH]c2ccccc2n1[C@H]1CC[C@@H](O)CC1)c1ccnc(-c2ccccc2OC(F)F)c1` [I-163], the IC50 was found to be 110 nM at EGFR wt (setting [6]), 10.4 nM in experiment [2] (setting [7]) and 7 nM in experiment [3].

Regarding `Cc1ccc2c(c1)[nH]/c(=N\C(=O)c1ccnc(-c3cccc(CN(C)C)c3)c1)n2[C@H]1CC[C@@H](O)CC1` [I-111], the IC50 on EGFR wt (setting [4]) was determined as 7040 nM; in experiment [2] (setting [5]) it was 10.3 nM; in experiment [3], 4 nM.
